This is an account of results in ChEMBL document CHEMBL5303573, “Mapping human microbiome drug metabolism by gut bacteria and their genes” (Nature, 2019).

The nature of the first data set: The drug is tested on Bacteroides vulgatus strain: ATCC8482 for biotransformation. The drug concentrations were measured before and after a 12-h incubation by liquid-chromatography-coupled mass spectrometry (LC–MS). The settings on record: phocaeicola vulgatus, 2 µM.
With `CC(C)(C)NC(=O)[C@H]1CC[C@H]2[C@@H]3CC[C@H]4NC(=O)C=C[C@]4(C)[C@H]3CC[C@]12C` [FINASTERIDE], the “Bacterial Biotransformation” value is “Compound metabolized”.

The conditions of a further data set: parabacteroides distasonis, 12 h, 2 µM.
Description: The drug is tested on Parabacteroides distasonis strain: ATCC8503 for biotransformation. The drug concentrations were measured before and after a 12-h incubation by liquid-chromatography-coupled mass spectrometry (LC–MS)
For `CC(C)(C)NC(=O)[C@H]1CC[C@H]2[C@@H]3CC[C@H]4NC(=O)C=C[C@]4(C)[C@H]3CC[C@]12C` [FINASTERIDE], the “Bacterial Biotransformation” value is “Compound NOT metabolized”.

For a further data set the following is noted: anaerostipes sp., 12 h, 2 µM.
Description: The drug is tested on Anaerostipes sp. strain: fecal isolate for biotransformation. The drug concentrations were measured before and after a 12-h incubation by liquid-chromatography-coupled mass spectrometry (LC–MS)
For `C#C[C@]1(OC(C)=O)CC[C@H]2[C@@H]3CCC4=C/C(=N/O)CC[C@@H]4[C@H]3CC[C@@]21CC` [NORGESTIMATE], the “Bacterial Biotransformation” value is “Compound NOT metabolized”.
Still for that read-out and setting: under `CC(C)(C)NC(=O)[C@H]1CC[C@H]2[C@@H]3CC[C@H]4NC(=O)C=C[C@]4(C)[C@H]3CC[C@]12C` [FINASTERIDE] stands “Compound NOT metabolized”.

The nature of another data set: The drug is tested on Enterococcus faecalis strain: V583 for biotransformation. The drug concentrations were measured before and after a 12-h incubation by liquid-chromatography-coupled mass spectrometry (LC–MS). The following applies: 2 µM.
With `C#C[C@]1(OC(C)=O)CC[C@H]2[C@@H]3CCC4=C/C(=N/O)CC[C@@H]4[C@H]3CC[C@@]21CC` [NORGESTIMATE], the “Bacterial Biotransformation” value is listed as “Compound NOT metabolized”.
Still for that read-out and setting: under `CC(C)(C)NC(=O)[C@H]1CC[C@H]2[C@@H]3CC[C@H]4NC(=O)C=C[C@]4(C)[C@H]3CC[C@]12C` [FINASTERIDE] stands “Compound NOT metabolized”.

Another data set in a line: The drug is tested on Ruminococcus lactaris strain: ATCC29176 for biotransformation. The drug concentrations were measured before and after a 12-h incubation by liquid-chromatography-coupled mass spectrometry (LC–MS). The settings on record: 2 µM.
Consider `C#C[C@]1(OC(C)=O)CC[C@H]2[C@@H]3CCC4=C/C(=N/O)CC[C@@H]4[C@H]3CC[C@@]21CC` [NORGESTIMATE], for which the “Bacterial Biotransformation” value is “Compound NOT metabolized”.
With `CC(C)(C)NC(=O)[C@H]1CC[C@H]2[C@@H]3CC[C@H]4NC(=O)C=C[C@]4(C)[C@H]3CC[C@]12C` [FINASTERIDE], the “Bacterial Biotransformation” value is given as “Compound NOT metabolized”.

A further data set can be described thus: The drug is tested on Escherichia coli strain: BW25113 for biotransformation. The drug concentrations were measured before and after a 12-h incubation by liquid-chromatography-coupled mass spectrometry (LC–MS). The settings on record: 2 µM.
With `C#C[C@]1(OC(C)=O)CC[C@H]2[C@@H]3CCC4=C/C(=N/O)CC[C@@H]4[C@H]3CC[C@@]21CC` [NORGESTIMATE], the “Bacterial Biotransformation” value was “Compound NOT metabolized”.
For the compound `CC(C)(C)NC(=O)[C@H]1CC[C@H]2[C@@H]3CC[C@H]4NC(=O)C=C[C@]4(C)[C@H]3CC[C@]12C` [FINASTERIDE], the “Bacterial Biotransformation” value is “Compound NOT metabolized”.

A further data set in a line: The drug is tested on Clostridium sp. strain: fecal isolate for biotransformation. The drug concentrations were measured before and after a 12-h incubation by liquid-chromatography-coupled mass spectrometry (LC–MS). The following applies: 2 µM.
Consider `C#C[C@]1(OC(C)=O)CC[C@H]2[C@@H]3CCC4=C/C(=N/O)CC[C@@H]4[C@H]3CC[C@@]21CC` [NORGESTIMATE], for which the “Bacterial Biotransformation” value is “Compound metabolized”.
Still for that read-out and setting: next, `CC(C)(C)NC(=O)[C@H]1CC[C@H]2[C@@H]3CC[C@H]4NC(=O)C=C[C@]4(C)[C@H]3CC[C@]12C` [FINASTERIDE]: “Compound NOT metabolized”.

A further data set can be described thus: The drug is tested on Clostridium sporogenes strain: ATCC15579 for biotransformation. The drug concentrations were measured before and after a 12-h incubation by liquid-chromatography-coupled mass spectrometry (LC–MS). The following applies: 2 µM.
Take `CC(C)(C)NC(=O)[C@H]1CC[C@H]2[C@@H]3CC[C@H]4NC(=O)C=C[C@]4(C)[C@H]3CC[C@]12C` [FINASTERIDE]: the “Bacterial Biotransformation” value is recorded as “Compound NOT metabolized”.

For another data set the following is noted: bacteroides fragilis, 12 h, 2 µM.
Description: The drug is tested on Bacteroides fragilis strain: 3397 (T10) for biotransformation. The drug concentrations were measured before and after a 12-h incubation by liquid-chromatography-coupled mass spectrometry (LC–MS)
Take `C#C[C@]1(OC(C)=O)CC[C@H]2[C@@H]3CCC4=C/C(=N/O)CC[C@@H]4[C@H]3CC[C@@]21CC` [NORGESTIMATE]: the “Bacterial Biotransformation” value is recorded as “Compound NOT metabolized”.
Consider `CC(C)(C)NC(=O)[C@H]1CC[C@H]2[C@@H]3CC[C@H]4NC(=O)C=C[C@]4(C)[C@H]3CC[C@]12C` [FINASTERIDE], for which the “Bacterial Biotransformation” value is “Compound NOT metabolized”.

The next data set is described as follows: The drug is tested on Bacteroides caccae strain: ATCC43185 for biotransformation. The drug concentrations were measured before and after a 12-h incubation by liquid-chromatography-coupled mass spectrometry (LC–MS). The following applies: 2 µM.
As to `C#C[C@]1(OC(C)=O)CC[C@H]2[C@@H]3CCC4=C/C(=N/O)CC[C@@H]4[C@H]3CC[C@@]21CC` [NORGESTIMATE], the “Bacterial Biotransformation” value is on record as “Compound NOT metabolized”.
Still for that read-out and setting: under `CC(C)(C)NC(=O)[C@H]1CC[C@H]2[C@@H]3CC[C@H]4NC(=O)C=C[C@]4(C)[C@H]3CC[C@]12C` [FINASTERIDE] stands “Compound NOT metabolized”.

The nature of a further data set: The drug is tested on Clostridium scindens strain: ATCC35704 for biotransformation. The drug concentrations were measured before and after a 12-h incubation by liquid-chromatography-coupled mass spectrometry (LC–MS). The following applies: 2 µM.
Take `C#C[C@]1(OC(C)=O)CC[C@H]2[C@@H]3CCC4=C/C(=N/O)CC[C@@H]4[C@H]3CC[C@@]21CC` [NORGESTIMATE]: the “Bacterial Biotransformation” value is “Compound NOT metabolized”.
On to `CC(C)(C)NC(=O)[C@H]1CC[C@H]2[C@@H]3CC[C@H]4NC(=O)C=C[C@]4(C)[C@H]3CC[C@]12C` [FINASTERIDE], for which the “Bacterial Biotransformation” value is “Compound metabolized”.

Another data set is described as follows: The drug is tested on Bifidobacterium breve strain: DSM20213 for biotransformation. The drug concentrations were measured before and after a 12-h incubation by liquid-chromatography-coupled mass spectrometry (LC–MS). The settings on record: 2 µM.
For the compound `C#C[C@]1(OC(C)=O)CC[C@H]2[C@@H]3CCC4=C/C(=N/O)CC[C@@H]4[C@H]3CC[C@@]21CC` [NORGESTIMATE], the “Bacterial Biotransformation” value is on record as “Compound NOT metabolized”.
The same measure, in the same setting: under `CC(C)(C)NC(=O)[C@H]1CC[C@H]2[C@@H]3CC[C@H]4NC(=O)C=C[C@]4(C)[C@H]3CC[C@]12C` [FINASTERIDE] stands “Compound NOT metabolized”.

The nature of a further data set: The drug is tested on Providencia rettgeri strain: DSM1131 for biotransformation. The drug concentrations were measured before and after a 12-h incubation by liquid-chromatography-coupled mass spectrometry (LC–MS). The format is ADME. Also noted: dose 2 uM, timepoint 0 vs 12 hours. The following applies: 2 µM.
Regarding `C#C[C@]1(OC(C)=O)CC[C@H]2[C@@H]3CCC4=C/C(=N/O)CC[C@@H]4[C@H]3CC[C@@]21CC` [NORGESTIMATE], the “Bacterial Biotransformation” value is recorded as “Compound NOT metabolized”.

The conditions of a further data set: parabacteroides johnsonii, 12 h, 2 µM.
Description: The drug is tested on Parabacteroides johnsonii strain: DSM18315 for biotransformation. The drug concentrations were measured before and after a 12-h incubation by liquid-chromatography-coupled mass spectrometry (LC–MS)
Turning to `C#C[C@]1(OC(C)=O)CC[C@H]2[C@@H]3CCC4=C/C(=N/O)CC[C@@H]4[C@H]3CC[C@@]21CC` [NORGESTIMATE], the “Bacterial Biotransformation” value is recorded as “Compound metabolized”.

The nature of the next data set: The drug is tested on Bacteroides cellulosilyticus strain: DSM14838 for biotransformation. The drug concentrations were measured before and after a 12-h incubation by liquid-chromatography-coupled mass spectrometry (LC–MS). The following applies: 2 µM.
In the case of `C#C[C@]1(OC(C)=O)CC[C@H]2[C@@H]3CCC4=C/C(=N/O)CC[C@@H]4[C@H]3CC[C@@]21CC` [NORGESTIMATE], the “Bacterial Biotransformation” value was “Compound NOT metabolized”.
Take `CC(C)(C)NC(=O)[C@H]1CC[C@H]2[C@@H]3CC[C@H]4NC(=O)C=C[C@]4(C)[C@H]3CC[C@]12C` [FINASTERIDE]: the “Bacterial Biotransformation” value is on record as “Compound NOT metabolized”.

The conditions of the next data set: bacteroides thetaiotaomicron, 12 h, 2 µM.
Description: The drug is tested on Bacteroides thetaiotaomicron strain: VPI-5482 for biotransformation. The drug concentrations were measured before and after a 12-h incubation by liquid-chromatography-coupled mass spectrometry (LC–MS)
Turning to `C#C[C@]1(OC(C)=O)CC[C@H]2[C@@H]3CCC4=C/C(=N/O)CC[C@@H]4[C@H]3CC[C@@]21CC` [NORGESTIMATE], the “Bacterial Biotransformation” value is given as “Compound NOT metabolized”.
With `CC(C)(C)NC(=O)[C@H]1CC[C@H]2[C@@H]3CC[C@H]4NC(=O)C=C[C@]4(C)[C@H]3CC[C@]12C` [FINASTERIDE], the “Bacterial Biotransformation” value is “Compound NOT metabolized”.

A short description of another data set: The drug is tested on Blautia hansenii strain: DSM20583 for biotransformation. The drug concentrations were measured before and after a 12-h incubation by liquid-chromatography-coupled mass spectrometry (LC–MS). The settings on record: 2 µM.
As for `C#C[C@]1(OC(C)=O)CC[C@H]2[C@@H]3CCC4=C/C(=N/O)CC[C@@H]4[C@H]3CC[C@@]21CC` [NORGESTIMATE], the “Bacterial Biotransformation” value was “Compound metabolized”.
As for `CC(C)(C)NC(=O)[C@H]1CC[C@H]2[C@@H]3CC[C@H]4NC(=O)C=C[C@]4(C)[C@H]3CC[C@]12C` [FINASTERIDE], the “Bacterial Biotransformation” value is “Compound NOT metabolized”.

For another data set the following is noted: bifidobacterium adolescentis, 12 h, 2 µM.
Description: The drug is tested on Bifidobacterium adolescentis strain: ATCC 15703 for biotransformation. The drug concentrations were measured before and after a 12-h incubation by liquid-chromatography-coupled mass spectrometry (LC–MS)
`C#C[C@]1(OC(C)=O)CC[C@H]2[C@@H]3CCC4=C/C(=N/O)CC[C@@H]4[C@H]3CC[C@@]21CC` [NORGESTIMATE]: the “Bacterial Biotransformation” value is “Compound NOT metabolized”.
With `CC(C)(C)NC(=O)[C@H]1CC[C@H]2[C@@H]3CC[C@H]4NC(=O)C=C[C@]4(C)[C@H]3CC[C@]12C` [FINASTERIDE], the “Bacterial Biotransformation” value is on record as “Compound NOT metabolized”.

The next data set is described as follows: The drug is tested on Odoribacter splanchnicus strain: fecal isolate for biotransformation. The drug concentrations were measured before and after a 12-h incubation by liquid-chromatography-coupled mass spectrometry (LC–MS). The settings on record: 2 µM.
For the compound `CC(C)(C)NC(=O)[C@H]1CC[C@H]2[C@@H]3CC[C@H]4NC(=O)C=C[C@]4(C)[C@H]3CC[C@]12C` [FINASTERIDE], the “Bacterial Biotransformation” value is on record as “Compound metabolized”.

The conditions of another data set: segatella copri, 12 h, 2 µM.
Description: The drug is tested on Prevotella copri strain: DSM18205 for biotransformation. The drug concentrations were measured before and after a 12-h incubation by liquid-chromatography-coupled mass spectrometry (LC–MS)
As to `C#C[C@]1(OC(C)=O)CC[C@H]2[C@@H]3CCC4=C/C(=N/O)CC[C@@H]4[C@H]3CC[C@@]21CC` [NORGESTIMATE], the “Bacterial Biotransformation” value was “Compound NOT metabolized”.
As to `CC(C)(C)NC(=O)[C@H]1CC[C@H]2[C@@H]3CC[C@H]4NC(=O)C=C[C@]4(C)[C@H]3CC[C@]12C` [FINASTERIDE], the “Bacterial Biotransformation” value was “Compound NOT metabolized”.
